Measurements from patent publication US10407467B2, “Polymyxin derivatives and their use in combination therapy together with different antibiotics” (priority 2013, dated 2019).
Bridge positions count the residues as written; N and C are the ends. Square brackets hold non-standard residues; d marks the D form. Peptide text beside a SMILES is read from it. * marks the point of attachment. ξ: configuration not given here. ξβ3hGly(cHex) = NC(CC(=O)*)C1CCCCC1; Thr(3ξ) = CC(O)[C@H](N)C(=O)O; Dab = NCC[C@H](N)C(=O)O

Experiments:
Assay in all cases: MIC, compound in combination with a second agent (broth microdilution)
Type in all cases: cell-based
Pseudomonas aeruginosa = tested on: Pseudomonas aeruginosa
Outline: (§1)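 Compound and second agent (e.g. rifampicin) were combined 1:1 w/w, compound weighed as its TFA or sulphate salt. Inoculum was a direct colony suspension from 18-24 hour Mueller-Hinton agar at 0.5 McFarland. MIC is the total drug concentration; lower of duplicates reported, modal value when tested repeatedly.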

Escherichia coli = tested on: Escherichia coli
Outline: as §1

Klebsiella pneumoniae = tested on: Klebsiella pneumoniae
Outline: as §1

Acinetobacter baumannii = tested on: Acinetobacter baumannii
Outline: as §1

[1] = 1:1 combination with Aztreonam, total drug concentration
[2] = 1:1 combination with Ciprofloxacin (by row order), total drug concentration
[3] = 1:1 combination with Tigecycline, total drug concentration
[4] = 1:1 combination with Ciprofloxacin, total drug concentration
[5] = 1:1 combination with Vancomycin, total drug concentration
[6] = Ratio of Compound to Rifampicin 1:1, total drug concentration
[7] = Ratio of Compound to Rifampicin 1:3, total drug concentration

**Q.** How did the “MIC P. aeruginosa ATCC 27853” value (Pseudomonas aeruginosa; 1:1 (wt:wt) combination with Rifampicin, MIC = total drug concentration, strain ATCC 27853) turn out when `CC(C)C[C@@H]1NC(=O)[C@@H](Cc2ccccc2)NC(=O)[C@H](CCN)NC(=O)[C@@H](NC(=O)[C@H](CCN)NC(=O)[C@@H](NC(=O)CC(N)C2CCCCC2)C(C)O)CCNC(=O)[C@H](C(C)O)NC(=O)[C@H](CCN)NC(=O)[C@H](CCN)NC1=O` (stereo partly drawn) [Example 10, [3(R,S)-3-Amino-3-cyclohexane-propanoyl]Polymyxin B nonapeptide] ({ξβ3hGly(cHex)}-[Thr(3ξ)][Dab][Dab][Dab][dF]L[Dab][Dab][Thr(3ξ)]; lactam 3-C) was run?
**A.** 1 micrograms/mL

**Q.** What about the “MIC P. aeruginosa ATCC-47” value (Pseudomonas aeruginosa; 1:1 (wt:wt) combination with Rifampicin, MIC = total drug concentration, strain ATCC-47) of the same compound?
**A.** 0.25 micrograms/mL

**Q.** What about the “MIC P. aeruginosa CCUG 59626” value (Pseudomonas aeruginosa; 1:1 (wt:wt) combination with Rifampicin, MIC = total drug concentration, strain CCUG 59626) of the same compound?
**A.** 0.25 micrograms/mL

**Q.** And the “MIC P. aeruginosa ATCC 10145” value (Pseudomonas aeruginosa; [1])?
**A.** 1 micrograms/mL

**Q.** And the “MIC P. aeruginosa ATCC 27853” value (Pseudomonas aeruginosa; [2])?
**A.** 0.125 micrograms/mL

**Q.** And the “MIC P. aeruginosa CCUG 59626” value (Pseudomonas aeruginosa; [2])?
**A.** 0.5 micrograms/mL

**Q.** And the “MIC P. aeruginosa CCUG 59626” value (Pseudomonas aeruginosa; [3])?
**A.** 1 micrograms/mL

**Q.** What about the “MIC P. aeruginosa ATCC 10145” value (Pseudomonas aeruginosa; P. aeruginosa ATCC 10145, 1:1 combination with Azithromycin, total drug concentration) of the same compound?
**A.** 1 micrograms/mL

**Q.** What about the “MIC P. aeruginosa ATCC 10145” value (Pseudomonas aeruginosa; P. aeruginosa ATCC 10145, 1:1 combination with Novobiocin, total drug concentration) of the same compound?
**A.** 0.5 micrograms/mL

**Q.** What about the “MIC E. coli ATCC25922” value (Escherichia coli; 1:1 (wt:wt) combination with Rifampicin, MIC = total drug concentration, strain ATCC25922) of the same compound?
**A.** 0.125 micrograms/mL

**Q.** And the “MIC E. coli NCTC9001” value (Escherichia coli; 1:1 (wt:wt) combination with Rifampicin, MIC = total drug concentration, strain NCTC9001)?
**A.** 0.125 micrograms/mL

**Q.** What about the “MIC E. coli ATCC25922” value (Escherichia coli; [1]) of the same compound?
**A.** 0.125 micrograms/mL

**Q.** And the “MIC E. coli NCTC 13441” value (Escherichia coli; [1])?
**A.** 2 micrograms/mL

**Q.** And the “MIC E. coli ATCC25922” value (Escherichia coli; [4])?
**A.** ≤0.06 micrograms/mL

**Q.** What about the “MIC E. coli CCUG 59342” value (Escherichia coli; [4]) of the same compound?
**A.** 1 micrograms/mL

**Q.** What about the “MIC E. coli NCTC9001” value (Escherichia coli; [4]) of the same compound?
**A.** ≤0.06 micrograms/mL

**Q.** What about the “MIC E. coli NCTC9001” value (Escherichia coli; [3]) of the same compound?
**A.** 8 micrograms/mL

**Q.** What about the “MIC E. coli NCTC9001” value (Escherichia coli; [5]) of the same compound?
**A.** 16 microgram/mL

**Q.** What about the “MIC E. coli ATCC25922” value (Escherichia coli; E. coli ATCC25922, 1:1 combination with Azithromycin, total drug concentration) of the same compound?
**A.** 0.125 micrograms/mL

**Q.** And the “MIC E. coli ATCC25922” value (Escherichia coli; E. coli ATCC25922, 1:1 combination with Fusidic acid, total drug concentration)?
**A.** 1 micrograms/mL

**Q.** And the “MIC E. coli ATCC25922” value (Escherichia coli; E. coli ATCC25922, 1:1 combination with Novobiocin, total drug concentration)?
**A.** 0.5 micrograms/mL

**Q.** What about the “MIC E. coli ATCC25922” value (Escherichia coli; E. coli ATCC25922, 1:1 combination with Oxacillin, total drug concentration) of the same compound?
**A.** 8 micrograms/mL

**Q.** And the “MIC E. coli NCTC9001” value (Escherichia coli; E. coli NCTC9001, 1:1 combination with Meropenem, total drug concentration)?
**A.** 0.5 micrograms/mL

**Q.** What about the “MIC E. coli NCTC 13441” value (Escherichia coli; E. coli NCTC 13441, 1:1 combination with Azithromycin, total drug concentration) of the same compound?
**A.** 2 micrograms/mL

**Q.** What about the “MIC E. coli NCTC 13441” value (Escherichia coli; E. coli NCTC 13441, 1:1 combination with Novobiocin, total drug concentration) of the same compound?
**A.** 0.5 micrograms/mL

**Q.** And the “MIC K. pneumoniae ATCC 4352” value (Klebsiella pneumoniae; 1:1 (wt:wt) combination with Rifampicin, MIC = total drug concentration, strain ATCC 4352)?
**A.** ≤0.06 micrograms/mL

**Q.** And the “MIC K. pneumoniae ATCC-BAA-2146” value (Klebsiella pneumoniae; 1:1 (wt:wt) combination with Rifampicin, MIC = total drug concentration, strain ATCC-BAA-2146)?
**A.** 0.5 micrograms/mL

**Q.** What about the “MIC K. pneumoniae CCUG-59348” value (Klebsiella pneumoniae; 1:1 (wt:wt) combination with Rifampicin, MIC = total drug concentration, strain CCUG-59348) of the same compound?
**A.** 1 micrograms/mL

**Q.** What about the “MIC K. pneumoniae NCTC 13438” value (Klebsiella pneumoniae; 1:1 (wt:wt) combination with Rifampicin, MIC = total drug concentration, strain NCTC 13438) of the same compound?
**A.** 0.5 micrograms/mL

**Q.** What about the “MIC K. pneumoniae ATCC 4352” value (Klebsiella pneumoniae; [1]) of the same compound?
**A.** ≤0.06 micrograms/mL

**Q.** And the “MIC K. pneumoniae CCUG 59349” value (Klebsiella pneumoniae; [1])?
**A.** 4 micrograms/mL

**Q.** And the “MIC K. pneumoniae ATCC 4352” value (Klebsiella pneumoniae; [2])?
**A.** ≤0.06 micrograms/mL

**Q.** What about the “MIC K. pneumoniae ATCC BAA-1706” value (Klebsiella pneumoniae; [2]) of the same compound?
**A.** 0.25 micrograms/mL

**Q.** And the “MIC K. pneumoniae CCUG 59348” value (Klebsiella pneumoniae; [4])?
**A.** 32 micrograms/mL

**Q.** What about the “MIC K. pneumoniae NCTC 13442” value (Klebsiella pneumoniae; [4]) of the same compound?
**A.** 1 micrograms/mL

**Q.** What about the “MIC K. pneumoniae CCUG 59348” value (Klebsiella pneumoniae; [3]) of the same compound?
**A.** >32 micrograms/mL

**Q.** And the “MIC K. pneumoniae NCTC 13442” value (Klebsiella pneumoniae; [3])?
**A.** 16 micrograms/mL

**Q.** And the “MIC K. pneumoniae CCUG 59348” value (Klebsiella pneumoniae; [5])?
**A.** >32 microgram/mL

**Q.** What about the “MIC K. pneumoniae NCTC 13442” value (Klebsiella pneumoniae; [5]) of the same compound?
**A.** 4 microgram/mL

**Q.** What about the “MIC K. pneumoniae ATCC 4352” value (Klebsiella pneumoniae; K. pneumoniae ATCC4352, 1:1 combination with Azithromycin, total drug concentration) of the same compound?
**A.** 0.125 micrograms/mL

**Q.** And the “MIC K. pneumoniae ATCC 4352” value (Klebsiella pneumoniae; K. pneumoniae ATCC4352, 1:1 combination with Fusidic acid, total drug concentration)?
**A.** 0.5 micrograms/mL

**Q.** And the “MIC K. pneumoniae ATCC 4352” value (Klebsiella pneumoniae; K. pneumoniae ATCC4352, 1:1 combination with Novobiocin, total drug concentration)?
**A.** 0.125 micrograms/mL

**Q.** What about the “MIC K. pneumoniae ATCC BAA-1706” value (Klebsiella pneumoniae; K. pneumoniae ATCC BAA-1706, 1:1 combination with Meropenem, total drug concentration) of the same compound?
**A.** 4 micrograms/mL

**Q.** And the “MIC K. pneumoniae CCUG 59348” value (Klebsiella pneumoniae; K. pneumoniae CCUG 59348, 1:1 combination with Meropenem, total drug concentration)?
**A.** >32 micrograms/mL

**Q.** And the “MIC K. pneumoniae CCUG 59349” value (Klebsiella pneumoniae; K. pneumoniae CCUG 59349, 1:1 combination with Azithromycin, total drug concentration)?
**A.** 4 micrograms/mL

**Q.** And the “MIC K. pneumoniae CCUG 59349” value (Klebsiella pneumoniae; K. pneumoniae CCUG 59349, 1:1 combination with Novobiocin, total drug concentration)?
**A.** 1 micrograms/mL

**Q.** And the “MIC K. pneumoniae NCTC 13442” value (Klebsiella pneumoniae; K. pneumoniae NCTC 13442, 1:1 combination with Meropenem, total drug concentration)?
**A.** 16 micrograms/mL

**Q.** And the “MIC K. pneumoniae ATCC-BAA-2146” value (Klebsiella pneumoniae; [6])?
**A.** 0.5 micrograms/mL

**Q.** What about the “MIC K. pneumoniae CCUG-59348” value (Klebsiella pneumoniae; [6]) of the same compound?
**A.** 1 micrograms/mL

**Q.** And the “MIC K. pneumoniae NCTC 13438” value (Klebsiella pneumoniae; [6])?
**A.** 0.5 micrograms/mL

**Q.** And the “MIC K. pneumoniae ATCC-BAA-2146” value (Klebsiella pneumoniae; [7])?
**A.** 0.5 micrograms/mL

**Q.** What about the “MIC K. pneumoniae CCUG-59348” value (Klebsiella pneumoniae; [7]) of the same compound?
**A.** 1 micrograms/mL

**Q.** And the “MIC K. pneumoniae NCTC 13438” value (Klebsiella pneumoniae; [7])?
**A.** 0.5 micrograms/mL

**Q.** What about the “MIC A. baumannii ATCC BAA-747” value (Acinetobacter baumannii; 1:1 (wt:wt) combination with Rifampicin, MIC = total drug concentration, strain ATCC BAA-747) of the same compound?
**A.** 0.25 micrograms/mL

**Q.** What about the “MIC A. baumannii CCUG57249” value (Acinetobacter baumannii; 1:1 (wt:wt) combination with Rifampicin, MIC = total drug concentration, strain CCUG57249) of the same compound?
**A.** 0.125 micrograms/mL

**Q.** And the “MIC A. baumannii NCTC 13423” value (Acinetobacter baumannii; 1:1 (wt:wt) combination with Rifampicin, MIC = total drug concentration, strain NCTC 13423)?
**A.** 0.125 micrograms/mL

**Q.** What about the “MIC A. baumannii NCTC 13424” value (Acinetobacter baumannii; 1:1 (wt:wt) combination with Rifampicin, MIC = total drug concentration, strain NCTC 13424) of the same compound?
**A.** 0.125 micrograms/mL

**Q.** What about the “MIC A. baumannii NCTC 13424” value (Acinetobacter baumannii; [1]) of the same compound?
**A.** 1 micrograms/mL

**Q.** And the “MIC A. baumannii NCTC 13424” value (Acinetobacter baumannii; [2])?
**A.** 0.5 micrograms/mL

**Q.** What about the “MIC A. baumannii NCTC 13424” value (Acinetobacter baumannii; A. baumannii NCTC 13424, 1:1 combination with Azithromycin, total drug concentration) of the same compound?
**A.** 1 micrograms/mL
